As a reminder, the Kd is the concentration at which binding is half-saturated.

Molecules are shown by their SMILES. Active and inactive are the calls of the source. The rule behind the calls is not given here.

Kd data for 100 molecules are collected here from PubChem BioAssay AID1648 (Sanford-Burnham Center for Chemical Genomics, 2009).

This assay has as its target Serine/threonine-protein kinase mTOR (Homo sapiens) (UniProt P42345). As to the kind of experiment: mTOR FRB domain ligand binding – biophysical, NMR (AID 1648). The note with it: NMR binding to FRB domain, chemical shift.

Chain of Serine/threonine-protein kinase mTOR (Homo sapiens) (P42345 2015-2114): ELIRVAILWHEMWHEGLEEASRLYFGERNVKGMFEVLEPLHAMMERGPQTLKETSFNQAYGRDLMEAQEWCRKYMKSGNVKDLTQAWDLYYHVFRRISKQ

As for `CN(C)S(=O)(=O)c1ccc(C(=O)NN)cc1`, the Kd was > 4 mM (inactive).
As for `COc1cccc(-c2nn(-c3ccccc3)cc2CO)c1`, the figure is > 4 mM (inactive); as for `O=C(NN=C1CCCC1)c1ccncc1`, > 4 mM (inactive).
On to `COC1=CC(=O)C[C@@H](C)[C@]12Oc1c(Cl)c(OC)cc(OC)c1C2=O`, for which the Kd is > 4 mM (inactive).
In the case of `OCc1ccc2c(c1)OCCCO2`, the Kd is > 4 mM (inactive).
`O=C1NNC(=O)C2C3c4ccccc4C(c4ccccc43)C12` (stereo not given): the Kd is > 4 mM (inactive).
Consider `C[C@@H]1CC[C@H]2[C@@H](C)C(=O)O[C@@H]3OC4(C)CC[C@@H]1[C@]32OO4`, for which the Kd is > 4 mM (inactive).
Consider `NC1CSCC1O` (stereo not given), for which the Kd was > 4 mM (inactive).
Consider `O=C1CCCC2C3CC(CN12)[C@@H]1CCCCN1C3` (stereo not given in full), for which the Kd was > 4 mM (inactive).
As to `Cc1cc(C(=O)Nc2sc3c(c2C#N)CCC3)no1`, the Kd is > 4 mM (inactive).
With `Cc1c(N=CN(C)C)c(=O)n(-c2ccccc2)n1C`, the Kd is > 4 mM (inactive).
Turning to `O=C(/C=C/c1ccc(O)c(O)c1)O[C@@H]1C[C@](O)(C(=O)O)C[C@@H](O)[C@H]1O`, the Kd is > 4 mM (inactive).
In the case of `Cn1cnc2c(=S)[nH]c(=O)n(Cc3ccccc3)c21`, the Kd is > 4 mM (inactive).
Take `O=C(c1cc2ccccc2o1)N1CCCCCC1`: the Kd is > 4 mM (inactive).
On to `Cc1ccc(-c2cc(C(=O)N3CCCC3)no2)cc1`, for which the Kd was > 4 mM (inactive).
On to `O=C(O)CSCc1ccc(Cl)cc1`, for which the Kd was > 4 mM (inactive).
`Cc1nnc(SCc2ccc(F)cc2)s1`: the Kd is > 4 mM (inactive).
As for `Cc1cc(C(=O)N2CCN(c3ncccn3)CC2)c(C)o1`, the figure is > 4 mM (inactive).
As for `Cn1c(O)c(/C=C2\C=CC=N2)c(=O)[nH]c1=O`, the figure is > 4 mM (inactive); as for `COC(=O)C[C@@H]1C2(C)C(=O)[C@@H](CC3=C4CC(O)O[C@@H](c5ccoc5)[C@]4(C)CCC32)[C@H](O)C1(C)C` (stereo not given in full), > 4 mM (inactive); as for `OCCNc1nc2ccc(Cl)cc2[nH]1`, > 4 mM (inactive).
Turning to `COc1cc2cc[n+]3cc4c(OC)c(OC)ccc4cc3c2cc1OC`, the Kd is > 4 mM (inactive).
As to `Cn1ncc(NC(=O)Nc2ccc(F)cc2F)c1C(N)=O`, the Kd was > 4 mM (inactive).
Consider `Cc1ccnc(NS(=O)(=O)c2ccccc2)n1`, for which the Kd was > 4 mM (inactive).
With `Cc1nc(-c2ccccc2)sc1CN`, the Kd is > 4 mM (inactive).
With `CC(C)CCCC(C)C1CCC2C3CC(=O)[C@H]4C[C@@H](O)CC[C@]4(C)C3CC[C@]12C` (stereo not given in full), the Kd is > 4 mM (inactive).
As for `CCOc1ccc2nc(NS(C)(=O)=O)sc2c1`, the Kd is > 4 mM (inactive).
In the case of `COc1ccc2c(C)cc(=O)oc2c1`, the Kd is > 4 mM (inactive).
Consider `Nc1cccc2cccnc12`, for which the Kd is > 4 mM (inactive).
Turning to `NC(Cn1ccc(=O)c(O)c1)C(=O)O` (stereo not given), the Kd is > 4 mM (inactive).
In the case of `O=C(O)c1cc(=O)c2cccc(O)c2[nH]1`, the Kd is > 4 mM (inactive).
On to `Cc1cc(C)nc(N(C#N)Cc2ccccc2)n1`, for which the Kd is > 4 mM (inactive).
As for `Cc1cc(N2CCCC2=O)c(N)cc1N`, the figure is > 4 mM (inactive).
For `CCN1CCC(=NO)CC1`, the Kd was > 4 mM (inactive).
On to `O=C(Nc1ccccc1)N1CCOCC1`, for which the Kd is > 4 mM (inactive).
As for `O=C1CCC(=O)N1CN1CCOCC1`, the figure is > 4 mM (inactive).
Take `CC1(C)Cc2cccc(CO)c2O1`: the Kd is > 4 mM (inactive).
Consider `CC(=O)Nc1ccc2c(c1)CCCC2=O`, for which the Kd was > 4 mM (inactive).
As for `O=C(Nc1nncs1)c1c(F)cccc1F`, the Kd was > 4 mM (inactive).
Consider `CC(=O)Nc1cnn(Cc2ccc(Br)cc2)c1`, for which the Kd was > 4 mM (inactive).
`CS(=O)(=O)c1ccc2nc(N)sc2c1`: the Kd was > 4 mM (inactive).
With `OCc1cccc2c1OCO2` the figure was > 4 mM (inactive); with `COc1ccc(C2NC(C(=O)O)CS2)cc1` (stereo not given), > 4 mM (inactive).
With `O=c1nc(N2CCOCC2)nc2n1CCO2`, the Kd was > 4 mM (inactive).
With `COc1cccc(/C=C/C(=O)O)c1C(C)C`, the Kd is > 4 mM (inactive).
Turning to `O=S1(=O)C=CC(Nc2ccccc2)C1` (stereo not given), the Kd is > 4 mM (inactive).
For `O=C(NCCCSc1ncccn1)Nc1ncccn1`, the Kd was > 4 mM (inactive).
For `Cc1cccc(C)c1NC(=O)CN1CCOCC1`, the Kd is > 4 mM (inactive).
As to `CC(=O)NCC1(c2ccccc2)CCOCC1`, the Kd was > 4 mM (inactive).
As for `O=C(Nc1ccc(N2CCOCC2)cc1)C1CC1`, the figure is > 4 mM (inactive); as for `CCNC(CC(=O)Nc1cccc([N+](=O)[O-])c1)C(=O)O` (stereo not given), > 4 mM (inactive); as for `O=[N+]([O-])c1ccc(/C=N/c2ncn[nH]2)cc1`, > 4 mM (inactive).
As for `CC(C)c1ccccc1NC(=O)c1cnccn1`, the Kd is > 4 mM (inactive).
With `Nc1cccc(C(=O)c2ccccc2)c1`, the Kd is > 4 mM (inactive).
`CN(c1ccccc1C(=O)N1CCCC1)S(C)(=O)=O`: the Kd was > 4 mM (inactive).
With `CC(=O)O[C@@H]1CC2C(C)(C)C(=O)[C@@H]3O[C@@H]3[C@]2(C)C2CC[C@]3(C)C(=CC(=O)O[C@H]3c3ccoc3)[C@@]21C` (stereo not given in full) the figure was > 4 mM (inactive); with `C[C@H]1[C@H](C)CC[C@]2(CO)CC[C@]3(C)C(=CCC4[C@@]5(C)CC[C@H](O)C(C)(C)C5CC[C@]43C)[C@H]12` (stereo not given in full), > 4 mM (inactive); with `NC12CC3CC(C1)CC(C(=O)O)(C3)C2`, > 4 mM (inactive).
As for `Cc1cc(C(=O)N2CCN(S(C)(=O)=O)CC2)cs1`, the Kd is > 4 mM (inactive).
As for `CCP(=O)(CC)c1cccc(C)c1`, the Kd was > 4 mM (inactive).
As for `COc1cc(S(=O)(=O)N(C)C)ccc1F`, the Kd was > 4 mM (inactive).
For the molecule `NC(=O)c1ccc(C(N)=O)c(-c2ccccc2)c1`, the Kd is > 4 mM (inactive).
`COc1cc(OC)c2c(OC)c(-c3ccc4c(c3)OCO4)c(=O)oc2c1`: the Kd is > 4 mM (inactive).
As for `OCc1ccc2c(c1)OCCO2`, the figure is > 4 mM (inactive).
`C[C@@H]1C(=O)O[C@H]2[C@H]1CC[C@@]1(C)C=CC(=O)[C@@]3(C)O[C@@]213`: the Kd is > 4 mM (inactive).
Take `NC(=O)CSCc1c(Cl)cccc1Cl`: the Kd is > 4 mM (inactive).
On to `CC(NC(=O)c1ccco1)C1CCCO1` (stereo not given), for which the Kd was > 4 mM (inactive).
With `O=C(O)c1ccccc1N1CCOCC1` the figure was > 4 mM (inactive).
In the case of `O=C1CC(c2ccccc2)n2ncnc2N1` (stereo not given), the Kd is > 4 mM (inactive).
Regarding `NCc1csc(-c2ccccc2)n1`, the Kd was > 4 mM (inactive).
Take `CC(=O)O[C@H]1CC[C@@]2(C)C(C[C@@H](OC(C)=O)[C@@]3(C)C4=CC(=O)O[C@@H](c5ccoc5)[C@]4(C)CCC23)C1(C)C` (stereo not given in full): the Kd is > 4 mM (inactive).
As for `Cc1c(CO)cnn1-c1ccccc1`, the Kd was > 4 mM (inactive).
On to `O=C(O)c1cn(-c2ccccc2)nc1-c1ccncc1`, for which the Kd is > 4 mM (inactive).
`O=C(Nn1cnnc1)c1cc2c(s1)CCCC2`: the Kd is > 4 mM (inactive).
As for `O=[N+]([O-])c1cccc(-c2nnco2)c1`, the figure is > 4 mM (inactive); as for `COc1ccc(/C=C2/C(=O)N=C(N)N2C)cc1OC`, > 4 mM (inactive); as for `NCCc1cnc[nH]1`, > 4 mM (inactive).
On to `CC(=O)Nc1cc(O)cc(O)c1`, for which the Kd is > 4 mM (inactive).
As for `NCc1oc(-c2ccccc2)cc1C(=O)O`, the Kd is > 4 mM (inactive).
With `COC(=O)Nc1c(C)n(C)n(-c2ccccc2)c1=O` the figure was > 4 mM (inactive); with `C=C1[C@H]2CC[C@@]3(C)[C@H](c4ccoc4)OC(=O)C[C@]13O[C@H]1C[C@H](O)C(C)(C)[C@H](CC(=O)OC)[C@]12C`, > 4 mM (inactive); with `c1n[nH]cc1-c1cn[nH]c1`, > 4 mM (inactive).
For `Cc1nc2ccc(C(=O)N3CCSCC3)cc2s1`, the Kd is > 4 mM (inactive).
As for `COc1ccc(-c2ccc(OC)cc2C(=O)O)cc1`, the Kd was > 4 mM (inactive).
In the case of `Cc1cc(C)n2nc(Cc3ccccc3)nc2n1`, the Kd was > 4 mM (inactive).
On to `O=C(O)CN1C(=O)c2ccc(C(=O)O)cc2C1=O`, for which the Kd is > 4 mM (inactive).
As to `COc1cc([C@@H]2c3cc4c(cc3[C@H](O)[C@H]3COC(=O)[C@@H]23)OCO4)cc(OC)c1OC`, the Kd was > 4 mM (inactive).
For `O=c1oc2ccccc2cc1O`, the Kd was > 4 mM (inactive).
Regarding `CC1CCC2(OC1)OC1CC3C4CC[C@H]5C[C@@H](O)CC[C@]5(C)C4CC(=O)[C@]3(C)C1C2C` (stereo not given in full), the Kd is > 4 mM (inactive).
As to `C/C=C/c1ccc2c(c1)OCO2`, the Kd is > 4 mM (inactive).
In the case of `Cc1cc(O)c2c(c1)C(=O)c1cccc(O)c1C2=O`, the Kd is > 4 mM (inactive).
For `COc1ccc2c(c1)OC[C@@H](Cc1ccc(OC)c(OC)c1)[C@@H]2O`, the Kd is > 4 mM (inactive).
In the case of `COc1ccc2ccc(=O)oc2c1`, the Kd is > 4 mM (inactive).
Consider `COC(=O)c1cnccc1C(F)(F)F`, for which the Kd was > 4 mM (inactive).
As for `Cc1cc(C)n(-c2nc(C)nc(N)n2)n1`, the Kd was > 4 mM (inactive).
Turning to `Cc1c(C(=O)Nc2ccccn2)oc2ccccc12`, the Kd is > 4 mM (inactive).
For the molecule `O=c1[nH]c(=O)c2[nH]cnc2[nH]1`, the Kd was > 4 mM (inactive).
With `Cc1nc(NC2=NCCC(=O)N2)nc2ccccc12` the figure was > 4 mM (inactive); with `CN1CCC(NC(=O)c2c(F)cccc2Cl)CC1`, > 4 mM (inactive); with `C=C1C2CC[C@H]3[C@]4(C)C[C@H](OC5OC(CO)C(OS(=O)(=O)O)C(OS(=O)(=O)O)C5OC(=O)CC(C)C)C[C@@H](C(=O)O)[C@H]4CC[C@]3(C2)[C@H]1O` (stereo not given in full), > 4 mM (inactive).
